Results taken from PMC11198769, “Enhancement of transcription efficiency by TAR-Tat system increases the functional expression of human olfactory receptors” (PLOS ONE, 2024).

What was measured:
Assay in all cases: Comprehensive analysis (screening) of hORs against n-hexanal
Format in all cases: cell-based
OR5M3 = target: T1, OR5M3 (Homo sapiens, UniProt Q8NGP4); settings: OR5M3, 500 μM n-hexanal, with the TAR-Tat system (hOR/pHEK), n = 1
T1 construct: Lucy tag (N); FLAG (N); Rho tag (N); expressed in transfected cells; host or cells: Flp-In T-REx-293 cells stably expressing RTP1S, Gαolf and Ric8-b
T1 sequence (Q8NGP4 1-307): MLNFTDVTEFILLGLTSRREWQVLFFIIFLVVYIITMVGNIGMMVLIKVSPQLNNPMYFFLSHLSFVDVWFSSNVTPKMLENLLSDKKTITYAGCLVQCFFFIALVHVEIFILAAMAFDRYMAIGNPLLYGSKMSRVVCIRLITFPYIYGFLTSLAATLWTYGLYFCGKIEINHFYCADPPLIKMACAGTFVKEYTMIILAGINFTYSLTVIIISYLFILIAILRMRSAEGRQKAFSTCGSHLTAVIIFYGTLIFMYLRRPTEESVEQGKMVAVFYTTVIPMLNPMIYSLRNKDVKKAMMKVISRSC
Experimental: (§1) Transfection was performed as described in the “hOR assay,” but 12.5 ng of 379 hOR plasmids (hOR/pBApo and hOR/pHEK) was transfected with the 12.5 ng pGlosensor^TM-22F cAMP biosensor plasmid (Promega) in 384 plates per well. After loading the GloSensor cAMP substrate and preincubation, the assay buffer was added (30 μL/well). After 10 min of equilibration, luminescence was measured (L0). Then, 50 mM n-hexanal, which was diluted with 10% DMSO/assay buffer, was added (4.7 μL/well). After 9 min, luminescence was measured (L9min). All the L9min values were subtracted by the L0 value (ΔL).

OR1A1 = target: T2, OR1A1 (Homo sapiens, UniProt Q9P1Q5); settings: OR1A1, 500 μM n-hexanal, n = 1
T2 construct: Lucy tag (N); FLAG (N); Rho tag (N); expressed in transfected cells; host or cells: Flp-In T-REx-293 cells stably expressing RTP1S, Gαolf and Ric8-b
T2 sequence (Q9P1Q5 1-309): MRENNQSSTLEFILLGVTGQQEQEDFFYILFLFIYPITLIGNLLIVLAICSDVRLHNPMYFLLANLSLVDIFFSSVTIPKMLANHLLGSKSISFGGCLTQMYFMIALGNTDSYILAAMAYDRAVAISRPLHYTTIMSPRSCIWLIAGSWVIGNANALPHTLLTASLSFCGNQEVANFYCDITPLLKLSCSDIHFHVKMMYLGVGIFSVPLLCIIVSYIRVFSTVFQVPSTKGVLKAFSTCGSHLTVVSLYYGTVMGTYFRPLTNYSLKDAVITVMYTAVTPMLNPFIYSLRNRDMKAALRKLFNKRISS
Experimental: as §1

OR10H3 = target: T3, OR10H3 (Homo sapiens, UniProt O60404); settings: OR10H3, 500 μM n-hexanal, with the TAR-Tat system (hOR/pHEK), n = 1
T3 construct: Lucy tag (N); expressed in transfected cells; host or cells: Flp-In T-REx-293 cells stably expressing RTP1S, Gαolf and Ric8-b
T3 sequence (O60404 1-316): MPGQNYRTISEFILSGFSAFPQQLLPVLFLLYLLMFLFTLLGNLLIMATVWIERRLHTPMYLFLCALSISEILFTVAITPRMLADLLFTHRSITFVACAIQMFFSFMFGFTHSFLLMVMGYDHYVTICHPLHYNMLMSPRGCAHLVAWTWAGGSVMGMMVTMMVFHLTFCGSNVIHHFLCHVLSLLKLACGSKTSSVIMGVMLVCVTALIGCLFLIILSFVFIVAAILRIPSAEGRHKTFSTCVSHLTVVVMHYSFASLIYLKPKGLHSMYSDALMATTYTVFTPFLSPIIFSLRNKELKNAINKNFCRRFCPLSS
Experimental: as §1

OR8B4 = target: T4, OR8B4 (Homo sapiens, UniProt Q96RC9); settings: OR8B4, 500 μM n-hexanal, with the TAR-Tat system (hOR/pHEK), n = 1
T4 construct: Lucy tag (N); FLAG (N); Rho tag (N); expressed in transfected cells; host or cells: Flp-In T-REx-293 cells stably expressing RTP1S, Gαolf and Ric8-b
T4 sequence (Q96RC9 1-309): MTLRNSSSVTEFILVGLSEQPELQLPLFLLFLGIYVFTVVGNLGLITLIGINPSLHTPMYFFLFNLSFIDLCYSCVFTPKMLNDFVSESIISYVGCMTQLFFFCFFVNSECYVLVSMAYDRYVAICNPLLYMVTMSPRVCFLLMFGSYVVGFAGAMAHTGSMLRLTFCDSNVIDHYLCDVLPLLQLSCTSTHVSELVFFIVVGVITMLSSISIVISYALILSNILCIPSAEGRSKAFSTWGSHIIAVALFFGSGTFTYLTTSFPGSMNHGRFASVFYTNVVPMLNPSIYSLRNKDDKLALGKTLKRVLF
Experimental: as §1

OR5K1 = target: T5, OR5K1 (Homo sapiens, UniProt Q8NHB7); settings: OR5K1, 500 μM n-hexanal, with the TAR-Tat system (hOR/pHEK), n = 1
T5 construct: Lucy tag (N); FLAG (N); Rho tag (N); expressed in transfected cells; host or cells: Flp-In T-REx-293 cells stably expressing RTP1S, Gαolf and Ric8-b
T5 sequence (Q8NHB7 1-308): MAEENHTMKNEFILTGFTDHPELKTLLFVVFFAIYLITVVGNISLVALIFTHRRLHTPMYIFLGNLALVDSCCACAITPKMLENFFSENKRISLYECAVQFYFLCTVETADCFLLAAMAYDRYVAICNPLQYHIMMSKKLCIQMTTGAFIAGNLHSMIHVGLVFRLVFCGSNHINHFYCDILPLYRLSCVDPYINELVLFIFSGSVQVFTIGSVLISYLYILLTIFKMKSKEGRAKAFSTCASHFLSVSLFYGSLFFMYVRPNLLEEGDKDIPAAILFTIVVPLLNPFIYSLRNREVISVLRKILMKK
Experimental: as §1

OR4K5 = target: T6, OR4K5 (Homo sapiens, UniProt Q8NGD3); settings: OR4K5, 500 μM n-hexanal, with the TAR-Tat system (hOR/pHEK), n = 1
T6 construct: Lucy tag (N); FLAG (N); Rho tag (N); expressed in transfected cells; host or cells: Flp-In T-REx-293 cells stably expressing RTP1S, Gαolf and Ric8-b
T6 sequence (Q8NGD3 1-323): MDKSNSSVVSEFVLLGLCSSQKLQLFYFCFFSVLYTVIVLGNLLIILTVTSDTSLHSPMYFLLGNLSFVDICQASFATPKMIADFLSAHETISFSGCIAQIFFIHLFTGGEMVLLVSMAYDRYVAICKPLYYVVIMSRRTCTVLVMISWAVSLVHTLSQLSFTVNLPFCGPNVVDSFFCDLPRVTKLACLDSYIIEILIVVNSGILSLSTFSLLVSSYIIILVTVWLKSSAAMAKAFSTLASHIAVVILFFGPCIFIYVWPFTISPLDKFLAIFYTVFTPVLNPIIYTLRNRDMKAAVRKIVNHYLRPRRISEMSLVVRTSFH
Experimental: as §1

response value (ΔL) (OR5M3): > 500
response value (ΔL) (OR1A1; with the TAR-Tat system (hOR/pHEK)): 6675
response value (ΔL) (OR1A1; without the TAR-Tat system (control plasmid)): 974
response value (ΔL) (OR10H3): > 500
response value (ΔL) (OR8B4): > 500
response value (ΔL) (OR5K1): > 500
response value (ΔL) (OR4K5): > 500
Structure (SMILES): CCCCCC=O [n-hexanal]
